Assay results published in PubChem BioAssay AID1259407 (Chemical Carcinogenesis Research Information System (CCRIS), 2018).
Activity calls are given as the source filed them. How the calls were made is not given here.

System: CCRIS mutagenicity, Ames/micronucleus/aberration tests
Test: CCRIS mutagenicity studies
[1] = Test System: AMES SALMONELLA TYPHIMURIUM, Strain/Indicator: TA100(NR), Metabolic Activation: NONE, Method: STANDARD PLATE
[2] = Test System: AMES SALMONELLA TYPHIMURIUM, Strain/Indicator: TA100, Metabolic Activation: NONE, Method: STANDARD PLATE

Measured: mutagenic call

O=[N+]([O-])c1ccc2c3c(cccc13)-c1ccccc1-2
active: Test System: AMES SALMONELLA TYPHIMURIUM, Strain/Indicator: TA97, Metabolic Activation: NONE active; positive | Test System: AMES SALMONELLA TYPHIMURIUM, Strain/Indicator: TA98(1,8-DNP6), Metabolic Activation: NONE active; positive | Test System: AMES SALMONELLA TYPHIMURIUM, Strain/Indicator: TA98(1,8-DNP6), Metabolic Activation: NONE, Method: STANDARD PLATE active; positive | Test System: AMES SALMONELLA TYPHIMURIUM, Strain/Indicator: TA98(NR), Metabolic Activation: NONE active; positive | Test System: AMES SALMONELLA TYPHIMURIUM, Strain/Indicator: TA98(NR), Metabolic Activation: NONE, Method: STANDARD PLATE active; positive | Test System: AMES SALMONELLA TYPHIMURIUM, Strain/Indicator: TA98, Metabolic Activation: NONE active; positive | Test System: AMES SALMONELLA TYPHIMURIUM, Strain/Indicator: TA98, Metabolic Activation: RAT, LIVER, S-9, AROCLOR 1254, Method: STANDARD PLATE active; positive | Test System: AMES SALMONELLA TYPHIMURIUM, Strain/Indicator: TA100, Metabolic Activation: NONE active; positive | [2] active; positive | Test System: AMES SALMONELLA TYPHIMURIUM, Strain/Indicator: TA1537, Metabolic Activation: NONE active; positive | Test System: AMES SALMONELLA TYPHIMURIUM, Strain/Indicator: TA1538, Metabolic Activation: NONE active; positive | Test System: AMES SALMONELLA TYPHIMURIUM, Strain/Indicator: TA1978, Metabolic Activation: NONE active; positive | Test System: AMES SALMONELLA TYPHIMURIUM, Strain/Indicator: TA7001, Metabolic Activation: NONE, Method: PREINCUBATION active; positive | Test System: AMES SALMONELLA TYPHIMURIUM, Strain/Indicator: TA7002, Metabolic Activation: NONE, Method: PREINCUBATION active; positive | Test System: AMES SALMONELLA TYPHIMURIUM, Strain/Indicator: TA7003, Metabolic Activation: NONE, Method: PREINCUBATION active; positive | Test System: AMES SALMONELLA TYPHIMURIUM, Strain/Indicator: TA7004, Metabolic Activation: NONE, Method: PREINCUBATION active; positive | Test System: AMES SALMONELLA TYPHIMURIUM, Strain/Indicator: TA7005, Metabolic Activation: NONE, Method: PREINCUBATION active; positive | Test System: AMES SALMONELLA TYPHIMURIUM, Strain/Indicator: TA7006, Metabolic Activation: NONE, Method: PREINCUBATION active; positive | Test System: AMES SALMONELLA TYPHIMURIUM, Strain/Indicator: TM677, Metabolic Activation: RAT, LIVER, S-9, AROCLOR 1254, Method: STANDARD PLATE active; positive
inactive: [1] inactive; negative | Test System: AMES SALMONELLA TYPHIMURIUM, Strain/Indicator: TA100(TN5-1,8-DNP1012), Metabolic Activation: NONE, Method: STANDARD PLATE inactive; negative | Test System: AMES SALMONELLA TYPHIMURIUM, Strain/Indicator: TA1535, Metabolic Activation: NONE inactive; negative

C[C@]12CC[C@@H]3c4ccc(O)cc4C[C@@H](CCCCCCCCCS(=O)CCCC(F)(F)C(F)(F)F)[C@H]3[C@@H]1CC[C@@H]2O (stereo partly specified)
active: Test System: CHINESE HAMSTER V-79, Strain/Indicator: V-79 (HPRT)/6-THIOGUANINE, Metabolic Activation: NONE, Method: SUSPENSION/PLATE active; positive

O=c1[nH]cc(N(CCCl)CCCl)c(=O)[nH]1
active: Test System: AMES SALMONELLA TYPHIMURIUM, Strain/Indicator: TA1535, Metabolic Activation: NONE, Method: STANDARD PLATE active; positive | Test System: E. COLI, Strain/Indicator: WP2 UVRA, Metabolic Activation: HAMSTER, LIVER, S-9, AROCLOR 1254, Method: STANDARD PLATE active; positive | Test System: E. COLI, Strain/Indicator: WP2 UVRA, Metabolic Activation: HAMSTER, LIVER, S-9, Method: STANDARD PLATE active; positive | Test System: E. COLI, Strain/Indicator: WP2 UVRA, Metabolic Activation: MOUSE, LIVER, S-9, Method: STANDARD PLATE active; positive | Test System: E. COLI, Strain/Indicator: WP2 UVRA, Metabolic Activation: NONE, Method: STANDARD PLATE active; positive | Test System: E. COLI, Strain/Indicator: WP2 UVRA, Metabolic Activation: RAT, LIVER, S-9, AROCLOR 1254, Method: STANDARD PLATE active; positive | Test System: E. COLI, Strain/Indicator: WP2 UVRA, Metabolic Activation: RAT, LIVER, S-9, Method: STANDARD PLATE active; positive | Test System: MOUSE LYMPHOMA, Strain/Indicator: L5178Y (TK+/TK-), Metabolic Activation: NONE, Method: SUSPENSION/PLATE active; positive | Test System: MOUSE LYMPHOMA, Strain/Indicator: L5178Y (TK+/TK-), Metabolic Activation: RAT, LIVER, S-9, AROCLOR 1254, Method: SUSPENSION/PLATE active; positive

CCOc1ccc(NO)cc1
active: Test System: AMES SALMONELLA TYPHIMURIUM, Strain/Indicator: TA100, Metabolic Activation: HAMSTER, LIVER, S-9, KANECHLOR 400, Method: PREINCUBATION active; positive | Test System: AMES SALMONELLA TYPHIMURIUM, Strain/Indicator: YG1026, Metabolic Activation: NONE, Method: PREINCUBATION active; positive | Test System: AMES SALMONELLA TYPHIMURIUM, Strain/Indicator: YG1029, Metabolic Activation: NONE, Method: PREINCUBATION active; positive | Test System: AMES SALMONELLA TYPHIMURIUM, Strain/Indicator: YG1042, Metabolic Activation: NONE, Method: PREINCUBATION active; positive
inactive: Test System: AMES SALMONELLA TYPHIMURIUM, Strain/Indicator: TA100(NR), Metabolic Activation: NONE, Method: PREINCUBATION inactive; negative | [1] inactive; negative | [2] inactive; negative | Test System: AMES SALMONELLA TYPHIMURIUM, Strain/Indicator: TA100TN5-1,8-DNP1011, Metabolic Activation: NONE, Method: PREINCUBATION inactive; negative | Test System: AMES SALMONELLA TYPHIMURIUM, Strain/Indicator: TA100TN5-1,8-DNP1011, Metabolic Activation: NONE, Method: STANDARD PLATE inactive; negative | Test System: AMES SALMONELLA TYPHIMURIUM, Strain/Indicator: TA100TN5-1,8-DNP1012, Metabolic Activation: NONE, Method: PREINCUBATION inactive; negative | Test System: AMES SALMONELLA TYPHIMURIUM, Strain/Indicator: TA100TN5-1,8-DNP1012, Metabolic Activation: NONE, Method: STANDARD PLATE inactive; negative

COC(=O)c1c2c(c3ccccc3c1O)OC(C)(C)C=C2
active: Test System: AMES SALMONELLA TYPHIMURIUM, Strain/Indicator: TA100, Metabolic Activation: NONE, Method: PREINCUBATION active; positive | Test System: AMES SALMONELLA TYPHIMURIUM, Strain/Indicator: TA100, Metabolic Activation: RAT, LIVER, S-9, PCB, Method: PREINCUBATION active; positive

Fc1ccc2cccnc2c1F
active: Test System: AMES SALMONELLA TYPHIMURIUM, Strain/Indicator: TA100, Metabolic Activation: RAT LIVER S-9, PHENOBARBITAL AND 5,6-BENZOFLAVONE, Method: PREINCUBATION active; positive
